Laboratory results published in patent publication US20230000872A1, “TRPA1 ANTAGONIST FOR THE TREATMENT OF PAIN ASSOCIATED TO DIABETIC NEUROPATHIC PAIN” (Glenmark Pharmaceuticals S.A., priority 2014, published 2023).

Assays:
[1] = system: subjects with painful DPN; test: Phase II clinical study of Compound I 250 mg BID, 4 weeks, in subjects with painful diabetic neuropathy (Example 1); type: in vivo, human; set-up: key to Mean API score (24-hour): 11-point pain intensity NRS (0–10); key to Night-time API Score, mean score: API score on 11-point pain intensity NRS (0–10); conditions: for Sleep interference score, mean score: 11-point scale; for API Score, mean score: 11-point NRS; for % subject population with >30% Reduction from baseline API Score / % subject population with >50% Reduction from baseline API Score: end of 4 week treatment
Description: Example 1: A Phase II Clinical Study to Evaluate Efficacy, Safety and Tolerability of Compound I in Subjects With Painful Diabetic Neuropathy
• To assess the efficacy of Compound I in the treatment of pain associated with diabetic peripheral neuropathy (DPN). • To evaluate the safety and tolerability of Compound I administered once daily (OD) or twice daily (BID) in subjects with painful DPN. • To investigate effect of Compound I on time to sustained improvement in pain, night-time pain, intensity of pain on neuropathic pain symptoms inventory (NPSI), and sleep in subjects with painful DPN. • To evaluate number of subjects who are responders on the […] of Change (PGIC) Questionnaire, Clinician Global Impression of Change (CGIC) Questionnaire; and number of subjects who achieve various levels of percent reduction in pain. • To investigate the pharmacokinetics (PK) of Compound I in subjects with DPN • To investigate effect of Compound I on the use of rescue medication (ibuprofen 400 mg to 600 mg four times a day or paracetamol 500 mg to 1000 mg two to three times a day) in subjects with painful DPN • To investigate effect of Compound I in subjects with painful DPN who have mechanical hyperalgesia and/or cold allodynia.
This was a multi-center, randomized, double-blind, placebo-controlled, parallel group, 4 week study of Compound I 250 mg BID in subjects with painful DPN. The study included a total of 138 subjects with DPN, randomized in a 1:1 ratio into 250 mg BID Compound I or Placebo. The study was conducted for a total period of 9 weeks as: up to a 2-week screening/washout period, a 1-week placebo-run in period, 4 weeks of treatment period and 2 weeks of follow-up period.
• Men and women (post-menopausal/surgically sterile only) aged between 18-75 (both inclusive) years • Subjects having diabetes mellitus (type 1 or 2) with a distal symmetric chronic sensorimotor painful peripheral neuropathy • A history of DPN pain for at least 6 months and no greater than 5 years. • DN4 “Douleur Neuropathique en 4” questions score of ≥4 • A baseline 24-hour average daily pain intensity score ≥4 and <9 as measured on a 11-point pain intensity NRS (numeric rating scale) • Subjects having stable glycemic control for at least one or two or three months prior to randomization having HbAlc (Glycosylated Hemoglobin) <8% • Subjects detected to have mechanical hyperalgesia and/or cold allodynia (detected with appropriate methodology)
Study medications were: • Placebo matching 250 mg Compound I during the placebo run-in period was taken orally BID in a fed state (30 minutes after breakfast/dinner) every day for day −7 to day −1 during Run-in period. The time interval between 2 consecutive doses must be 12 hours±60 min • 250 mg Compound I potassium granules or matching placebo during day-1 to day-28 treatment period. The time interval between 2 consecutive doses was 12 hours±60 min. • Reference therapy: Placebo to match investigational product, administered BID.
Clinical Endpoints were: • Change from baseline to end of treatment (i.e., baseline to end of week 4) in the mean 24-hour API score based on an 11-point pain intensity NRS • Change from baseline at the end of week 1, 2, 3, 4 and 6 in: • Mean night-time API (average pain intensity) Score (subject diary): night-time is defined as the time between going to bed at night and rising in the morning • Mean night-time worst pain intensity Score (subject diary): worst pain is defined as the subject's assessment of their worst pain intensity for the time period • Mean sleep interference Score (subject diary): A 11-point scale that asks subjects to select the score that best describes how much the pain interfered with sleep during the past 24 hours.

[2] = system: subjects with painful DPN and having preserved peripheral nerve function; test: Phase II clinical study of Compound I 250 mg BID, 4 week treatment plus 2 weeks follow up, in subjects with painful DPN and preserved peripheral nerve function (Example 2); type: in vivo, human
Description: Example 2: A Phase II Clinical Study to Evaluate Efficacy, Safety and Tolerability of Compound I in Subjects With Painful Diabetic Neuropathy
• Objectives of this study were To assess the safety, efficacy and tolerability of Compound I in the treatment of pain associated with diabetic peripheral neuropathy (DPN) and to evaluate efficacy of Compound I administered once daily (OD) or twice daily (BID) in subjects with painful DPN and having preserved peripheral nerve function and to investigate effect of Compound I on time to sustained improvement in pain, night-time pain, intensity of pain on neuropathic pain symptoms inventory (NPSI), and sleep in subjects with painful DPN and having preserved peripheral nerve function. • This was a randomized, double-blind, placebo-controlled, parallel group, 4 week treatment followed by 2 weeks follow up study of Compound I 250 mg and placebo BID in subjects with painful DPN and having preserved peripheral nerve function. The study included a total of 136 subjects with DPN and having preserved peripheral nerve function. • Clinical Endpoints were change from baseline in mean 24-hour API score based on an 11-point pain intensity NRS at the end of week 4 and week 6 in • In ITT ([…]) population and • In subject having one or more from baseline average pain intensity (API) score of ≥5, Cold detection threshold >18° C. at baseline as determined by QST and Warm detection threshold <49° C. at baseline as determined by QST

[3] = Sub-group: Hypersensitivity to cold stimulus and/or mechanical stimulus, Week 4
[4] = Sub-group: Moderate to severe pain (NRS score 5-8) and hypersensitivity to cold stimulus and/or mechanical stimulus, Week 4
[5] = Sub-group: Moderate to severe pain (NRS score 5-8) and preserved peripheral sensory neurons, Week 4
[6] = Sub-group: Moderate to severe pain (NRS score 5-8), Week 4
[7] = Sub-group: Preserved peripheral sensory neurons (non-denervation by QST), Week 4
[8] = Week 0 (baseline), 250 mg BID oral
[9] = Week 4 vs baseline, 250 mg BID oral
[10] = Sub-group: Hypersensitivity to cold stimulus and/or mechanical stimulus
[11] = Sub-group: Moderate to severe pain (NRS score 5-8)
[12] = Sub-group: Moderate to severe pain (NRS score 5-8) and hypersensitivity to cold stimulus and/or mechanical stimulus
[13] = Sub-group: Moderate to severe pain (NRS score 5-8) and preserved peripheral sensory neurons
[14] = Sub-group: preserved peripheral sensory neurons
[15] = subjects with one or more of baseline API score ≥5, Cold detection threshold >18° C., Warm detection threshold <49° C. (QST), Week 4
[16] = subjects with one or more of baseline API score ≥5, Cold detection threshold >18° C., Warm detection threshold <49° C. (QST), Week 6

## Cn1c(=O)c2c(CC(=O)Nc3nc(-c4ccc(F)c(C(F)(F)F)c4F)cs3)csc2n(C)c1=O [Compound I, N-{4-[2,4-difluoro-3-(trifluoromethyl)phenyl]-1,3-thiazol-2-yl}-2-(1,3-dimethyl-2,4-dioxo-1,2,3,4-tetrahydrothieno[2,3-d]pyrimidin-5-yl)acetamide]
[1]; 250 mg BID oral
  Onset of Sustained improvement in 24-hour API Score: Score is achieved in 18 days
[1]; Sub-group: Hypersensitivity to cold stimulus and/or mechanical stimulus, Week 0 (baseline)
  Mean API score (24-hour): 6.1
[1]; [3]
  API score % Reduction from baseline: 32.78%
  Mean API score (24-hour): 4.1
[1]; Sub-group: Moderate to severe pain (NRS score 5-8) and hypersensitivity to cold stimulus and/or mechanical stimulus, Week 0 (baseline)
  Mean API score (24-hour): 6.5
[1]; [4]
  API score % Reduction from baseline: 36.92%
  Mean API score (24-hour): 4.1
[1]; Sub-group: Moderate to severe pain (NRS score 5-8) and preserved peripheral sensory neurons, Week 0 (baseline)
  Mean API score (24-hour): 6.4
[1]; [5]
  API score % Reduction from baseline: 35.93%
  Mean API score (24-hour): 4.1
[1]; Sub-group: Moderate to severe pain (NRS score 5-8), Week 0 (baseline)
  Mean API score (24-hour): 6.3
[1]; [6]
  API score % Reduction from baseline: 33.33%
  Mean API score (24-hour): 4.2
[1]; Sub-group: Preserved peripheral sensory neurons (non-denervation by QST), Week 0 (baseline)
  Mean API score (24-hour): 6.2
[1]; [7]
  API score % Reduction from baseline: 33.33%
  Mean API score (24-hour): 4.1
[1]; [8]
  Mean daily dose of rescue medication: 425 mg
  Night-time API Score, mean score: 5.1
  Night-time Worst pain intensity Score, mean score: 5.3
  Sleep interference score, mean score: 4.5
[1]; Week 0, 250 mg BID oral
  API Score, mean score: 6.0
[1]; Week 4, 250 mg BID oral
  Mean daily dose of rescue medication: 111 mg
  Night-time API Score, mean score: 3.4
  Night-time Worst pain intensity Score, mean score: 3.5
  API Score, mean score: 4.1
  Sleep interference score, mean score: 2.7
[1]; Week 4 vs Week 0, 250 mg BID oral
  API Score, % Reduction: 31.66%
[1]; [9]
  Change in mean daily dose of rescue medication, % Reduction: 73.8%
  Night-time API Score, % Reduction: 33.33%
  Night-time Worst pain intensity Score, % Reduction: 33.96%
  Sleep interference score, % Reduction: 40%
[1]; [10]
  % subject population with >30% Reduction from baseline API Score: 59.1%
  % subject population with >50% Reduction from baseline API Score: 36.4%
[1]; [11]
  % subject population with >30% Reduction from baseline API Score: 58.6%
  % subject population with >50% Reduction from baseline API Score: 34.5%
[1]; [12]
  % subject population with >30% Reduction from baseline API Score: 66.7%
  % subject population with >50% Reduction from baseline API Score: 44.4%
[1]; [13]
  % subject population with >30% Reduction from baseline API Score: 56.7%
  % subject population with >50% Reduction from baseline API Score: 40.0%
[1]; [14]
  % subject population with >30% Reduction from baseline API Score: 52.9%
  % subject population with >50% Reduction from baseline API Score: 35.3%
[2]; ITT population, Week 0 (baseline)
  Mean API score: 6.0
[2]; ITT population, Week 4
  API score % Reduction from baseline: 32.16%
  Mean API score: 4.07
[2]; ITT population, Week 6
  API score % Reduction from baseline: 40.16%
  Mean API score: 3.59
[2]; subjects with one or more of baseline API score ≥5, Cold detection threshold >18° C., Warm detection threshold <49° C. (QST), Week 0 (baseline)
  Mean API score: 5.0
[2]; [15]
  API score % Reduction from baseline: 49.6%
  Mean API score: 2.52
[2]; [16]
  API score % Reduction from baseline: 66.2%
  Mean API score: 1.69
